Data as given in PMC7098370 (Toxicological Sciences, 2020).
Marks after values point to notes of the source that are not given here.

Key:
[1] = Bioelution in simulated intestinal fluid; conditions: simulated intestinal fluid pH 7.4, 24 h
Crl:CD(SD) rats [2] = assay: Subchronic 90-day oral RDT study with reproductive toxicity screening; format: in vivo, rat
Crl:CD(SD) rats [3] = assay: Combined RDT study with reproduction/developmental toxicity screening test; format: in vivo, rat; conditions: for mean body weight of pups below the control: high dose
[4] = Plasma toxicokinetic study; format: in vivo, rat; conditions: for C max / K el / t 1/2: 300 mg test item/kg PO
[5] = Mass balance study: urinary and fecal Co excretion after single oral gavage; format: in vivo, rat; conditions: single oral bolus 300 mg/kg bw (220 mg Co/kg bw), 72 h
rats = assay: Acute oral toxicity testing; format: in vivo, rat
Crl:CD(SD) rats [6] = assay: Benchmark dose modeling; design: species or system rat; conditions: nonconstant variance
[7] = Bioelution in simulated gastric fluid; conditions: simulated gastric fluid pH 1.5, 2 h, 37°C
[8] = females, 73.4 mg Co/kg bw/day, end of 90-day oral exposure, experimental group
[9] = females, 220 mg Co/kg bw/day, end of 90-day oral exposure, experimental group
[10] = females, 734 mg Co/kg bw/day, end of 90-day oral exposure, experimental group
[11] = females, 734 mg Co/kg bw/day, recovery group, end of 28-day recovery period
[12] = females, 734 mg Co/kg bw/day, recovery group, end of 90-day oral exposure
[13] = males, 73.4 mg Co/kg bw/day, end of 90-day oral exposure, experimental group
[14] = males, 220 mg Co/kg bw/day, end of 90-day oral exposure, experimental group
[15] = males, 734 mg Co/kg bw/day, end of 90-day oral exposure, experimental group
[16] = males, 734 mg Co/kg bw/day, recovery group, end of 28-day recovery period
[17] = males, 734 mg Co/kg bw/day, recovery group, end of 90-day oral exposure
[18] = female HGB dataset, Exponential 5 model
[19] = male PLT dataset, Exponential 2 model

In the case of `[O]=[Co].[O]=[Co][O][Co]=[O]` [Co3O4, Tricobalt tetraoxide], the “Bioelution of Co in intestinal fluid (% release)” value [1] is reported as 0.05 (24 h) % release, the “Bioelution of Co in intestinal fluid / cobalt release (µg Co/g sample)” value [1] is reported as 385 (24 h) µg Co/g sample and the premature deaths (Crl:CD(SD) rats [2]; 90-day oral gavage, all doses) is reported as “None of the animals died prematurely”. For the same compound, the “LOAEL (systemic)” value (Crl:CD(SD) rats [2]; 90-day oral gavage, rats) was 734 mg Co/kg bw/day, the NOAEL (Crl:CD(SD) rats [2]; 90-day oral gavage, rats) was 220 mg Co/kg bw/day and the “NOAEL (reproductive)” value (Crl:CD(SD) rats [2]; 90-day oral gavage, rats) was greater than 734 mg Co/kg bw/day. The “HCT, %Diff vs control” value (Crl:CD(SD) rats [2]; [8]) was −0.6%, the “HCT, mean” value (Crl:CD(SD) rats [2]; [8]) was 44.76% and the “HGB, %Diff vs control” value (Crl:CD(SD) rats [2]; [8]) was “+0.2%”. For the same compound, the “HGB, mean” value (Crl:CD(SD) rats [2]; [8]) was 9.51 mmol/L, the “RBC, mean” value (Crl:CD(SD) rats [2]; [8]) was 8.17 ×10E6/µl and the “HCT, %Diff vs control” value (Crl:CD(SD) rats [2]; [9]) was “+4.4%”. For the same compound, the “HCT, mean” value (Crl:CD(SD) rats [2]; [9]) was 46.99%, the “HGB, %Diff vs control” value (Crl:CD(SD) rats [2]; [9]) was “+5.9%” and the “HGB, mean” value (Crl:CD(SD) rats [2]; [9]) was 10.09 mmol/L. For the same compound, the “RBC, %Diff vs control” value (Crl:CD(SD) rats [2]; [9]) was “+5.6%”, the “RBC, mean” value (Crl:CD(SD) rats [2]; [9]) was 8.74 ×10E6/µl and the “HCT, %Diff vs control” value (Crl:CD(SD) rats [2]; [10]) was “+13.9%”. The “HCT, mean” value (Crl:CD(SD) rats [2]; [10]) was 51.27%, the “HGB, %Diff vs control” value (Crl:CD(SD) rats [2]; [10]) was “+16.4%” and the “HGB, mean” value (Crl:CD(SD) rats [2]; [10]) was 11.09 mmol/L. The “RBC, %Diff vs control” value (Crl:CD(SD) rats [2]; [10]) was “+12.9%”, the “RBC, mean” value (Crl:CD(SD) rats [2]; [10]) was 9.35 ×10E6/µl and the “HCT, mean” value (Crl:CD(SD) rats [2]; [11]) was “• 40.76 • .530%”. The “HGB, mean” value (Crl:CD(SD) rats [2]; [11]) was “• 9.28 • .450 mmol/l”, the “RBC, mean” value (Crl:CD(SD) rats [2]; [11]) was “• 7.56 • .573 ×10E6/µl” and the “HCT, mean” value (Crl:CD(SD) rats [2]; [12]) was “• 50.76 ^* • .013%”. The “HGB, mean” value (Crl:CD(SD) rats [2]; [12]) was “• 10.86 ^* • .032 mmol/l”, the “RBC, mean” value (Crl:CD(SD) rats [2]; [12]) was “• 9.12 • .17 ×10E6/µl” and the “HCT, %Diff vs control” value (Crl:CD(SD) rats [2]; [13]) was “+2.6%”. For the same compound, the “HCT, mean” value (Crl:CD(SD) rats [2]; [13]) was 49.53%, the “HGB, %Diff vs control” value (Crl:CD(SD) rats [2]; [13]) was “+2.2%” and the “HGB, mean” value (Crl:CD(SD) rats [2]; [13]) was 10.29 mmol/L. For the same compound, the “PLT, %Diff vs control” value (Crl:CD(SD) rats [2]; [13]) was “+4.2%”, the “PLT, mean” value (Crl:CD(SD) rats [2]; [13]) was 896.5 ×10E3/µl and the “RBC, %Diff vs control” value (Crl:CD(SD) rats [2]; [13]) was “+1.1%”. The “RBC, mean” value (Crl:CD(SD) rats [2]; [13]) was 9.30 ×10E6/µl, the “HCT, %Diff vs control” value (Crl:CD(SD) rats [2]; [14]) was “+9.2%” and the “HCT, mean” value (Crl:CD(SD) rats [2]; [14]) was 52.73%. For the same compound, the “HGB, %Diff vs control” value (Crl:CD(SD) rats [2]; [14]) was “+9.5%”, the “HGB, mean” value (Crl:CD(SD) rats [2]; [14]) was 11.03 mmol/L and the “PLT, mean” value (Crl:CD(SD) rats [2]; [14]) was 796.1 ×10E3/µl. The “RBC, %Diff vs control” value (Crl:CD(SD) rats [2]; [14]) was “+9.6%”, the “RBC, mean” value (Crl:CD(SD) rats [2]; [14]) was 10.08 ×10E6/µl and the “HCT, %Diff vs control” value (Crl:CD(SD) rats [2]; [15]) was “+24.2%”. For the same compound, the “HCT, mean” value (Crl:CD(SD) rats [2]; [15]) was 59.97%, the “HGB, %Diff vs control” value (Crl:CD(SD) rats [2]; [15]) was “+25.4%” and the “HGB, mean” value (Crl:CD(SD) rats [2]; [15]) was 12.63 mmol/L. The “PLT, mean” value (Crl:CD(SD) rats [2]; [15]) was 573.9 ×10E3/µl, the “RBC, %Diff vs control” value (Crl:CD(SD) rats [2]; [15]) was “+22.7%” and the “RBC, mean” value (Crl:CD(SD) rats [2]; [15]) was 11.29 ×10E6/µl. For the same compound, the “HCT, mean” value (Crl:CD(SD) rats [2]; [16]) was “• 50.38 • .126%”, the “HGB, mean” value (Crl:CD(SD) rats [2]; [16]) was “• 10.82 • .075 mmol/l” and the “PLT, mean” value (Crl:CD(SD) rats [2]; [16]) was “• 882.4 • .285 ×10E3/µl”. For the same compound, the “RBC, mean” value (Crl:CD(SD) rats [2]; [16]) was “• 9.47 • .052 ×10E6/µl”, the “HCT, mean” value (Crl:CD(SD) rats [2]; [17]) was “• 60.96** • 9.1E−06%” and the “HGB, mean” value (Crl:CD(SD) rats [2]; [17]) was “• 12.78** • 2.4E−06 mmol/l”. The “PLT, mean” value (Crl:CD(SD) rats [2]; [17]) was “• 645.6** • .0085 ×10E3/µl”, the “RBC, mean” value (Crl:CD(SD) rats [2]; [17]) was “• 11.3** • 7.1E−05 ×10E6/µl” and the “food intake of dams reduced compared with the control” value (Crl:CD(SD) rats [3]; 220 mg Co/kg bw/day, lactation day 1) was 30%. For the same compound, the “mean body weight of pups below the control” value (Crl:CD(SD) rats [3]; lactation day 0/1) was “up to 18%”, the “mean body weight of pups below the control” value (Crl:CD(SD) rats [3]; lactation day 4) was “up to 21%” and the premature deaths (Crl:CD(SD) rats [3]; oral gavage, all doses) was “None of the animals died prematurely”. For the same compound, the “NOAEL (F0 generation)” value (Crl:CD(SD) rats [3]; oral gavage, rats) was 734 mg Co/kg bw/day, the “NOAEL (F1 generation)” value (Crl:CD(SD) rats [3]; oral gavage, rats) was 220 mg Co/kg bw/day and the “NOAEL (reproductive toxicity)” value (Crl:CD(SD) rats [3]; oral gavage, rats) was greater than 734 mg test item/kg bw/day. The C max ([4]; females) was 1.10 ng/mL, the K el ([4]; females) was 0.0430 h⁻¹ and the “t 1/2” value ([4]; females) was 16.1 h. For the same compound, the C max ([4]; males) was 2.08 ng/mL, the K el ([4]; males) was 0.0402 h⁻¹ and the “t 1/2” value ([4]; males) was 17.3 h. The oral bioavailability ([4]; single oral bolus, rats, males and females not distinguished) was “below 0.1%”, the “Fecal Excretion (%)” value ([5]; females) was 95.2 % of Co applied and the “Sum of Urinary and Fecal Excretion (%)” value ([5]; females) was 95.3 % of Co applied. For the same compound, the “Urinary Excretion (%)” value ([5]; females) was 0.12 % of Co applied, the “Fecal Excretion (%)” value ([5]; males) was 116.4 % of Co applied and the “Sum of Urinary and Fecal Excretion (%)” value ([5]; males) was 116.5 % of Co applied. The “Urinary Excretion (%)” value ([5]; males) was 0.13 % of Co applied, the “Acute LD50 (mg Co/kg bw)” value (rats; OECD 401 or 425) was greater than 8076 mg Co/kg bw and the “Acute LD50 (mg substance/kg bw)” value (rats; OECD 401 or 425) was “exceeding 11 000 mg substance/kg bw”. For the same compound, the “Acute LD50 (mg substance/kg bw)” value (rats; OECD 401 or 425, listed as Tricobalt Tetraoxide) was > 11 000 mg substance/kg bw, the BMD1STD (Crl:CD(SD) rats [6]; [18]) was 210 mg Co/kg bw/day and the BMDL1STD (Crl:CD(SD) rats [6]; [18]) was 115 mg Co/kg bw/day. For the same compound, the BMD1STD (Crl:CD(SD) rats [6]; [19]) was 317 mg Co/kg bw/day, the BMDL1STD (Crl:CD(SD) rats [6]; [19]) was 219 mg Co/kg bw/day and the “Bioelution of Co in gastric fluid (% release), 2 h” value [7] was 0.2 % release. For the same compound, the “Bioelution of Co in gastric fluid / cobalt release (µg Co/g sample), 2 h” value [7] was 1460 µg Co/g sample.
